Source: US4555572A, “Pyrazolo[3,4,5-kl]acridine compositions and methods for their production and use” (Warner-Lambert Company, priority 1984, dated 1985)
Structures can show the parent of a compound that is named as a salt. Where two headings read alike, the source gives them in different places.

Columns and labels:
Branhamella catarrhalis = test: in vitro antibacterial (ABMF) microdilution susceptibility test; format: cell-based; settings: Moraxella catarrhalis, read-out: ABMF Test M.I.C. B. cata.
Text: (§1) (d) Still another test protocol is the in vitro antibacterial (ABMF) test which is a recognized standard microdilution susceptibility procedure in Mueller-Hinton broth against gram-positive and gram-negative bacterial test organisms. The procedure is a modification of a state-of-the-art procedure reported in Manual of Clinical Microbiology, Lennette, E. H., ed., by Barry, A. L. and C. Thornsberry at pages 463-474 and by Gavan, T. L. and A. L. Barry at pages 459-462, American Society for Microbiology, Washington, 1980.
(§2) In the test, a given bacterial culture is used to inoculate individaul test wells of microdilution trays containing growth medium and test compound, the latter in a microdilution series: 1000, 333, 111, 37, 12, 4, 1.4, and 0.46 micrograms per milliliter. […] For convenience, values are reported for Escherichia coli, Branhamella catarrhalis, Alcaligenes viscolactis, Streptococcus pneumoniae, and Bacillus cereus

Bacillus cereus = test: as above; format: cell-based; settings: read-out: ABMF Test M.I.C. B. cere.
Text: as §1, §2

Escherichia coli = test: as above; format: cell-based; settings: read-out: ABMF Test M.I.C. E. coli
Text: as §1, §2

Alcaligenes viscolactis = test: as above; format: cell-based; settings: read-out: ABMF Test M.I.C. A. visc.
Text: as §1, §2

Streptococcus pneumoniae = test: as above; format: cell-based; settings: read-out: ABMF Test M.I.C. S. pneu.
Text: as §1, §2

HCT-8 cells = test: in vitro proliferating human colon adenocarcinoma (HCA) cell screen, HCT-8; format: cell-based
Experimental: (a) One test protocol is the in vitro proliferating human colon adenocarcinoma (HCA) cell screen. In this test, HCT-8 cells (HCA cell line received from Yale University) are trypsinized using trypsin-EDTA. A single cell suspension is achieved by passing the cells through a 26 gauge needle with a 20-cc syringe. A cell suspension is prepared using RPMI 1640+10% FCS+50 μg/ml gentamicin sulfate with a cell concentration is approximately 30,000 cells/ml. The cell suspension is dispensed in Linbro 24-well plates; 1 ml/well. The plates are incubated for approximately 48 hours at 37° C. in a 5% CO2 atmosphere. At this time test compounds are added in the appropriate concentration. Five μl of the 200 μg/ml stock solution is added to each well in a primary test. […] of the appropriate dilution is added to each well for a titration test. The plates are reincubated an additional 60 to 65 hours at 37° C. in a 5% CO 2 atmosphere. The cells are lysed using a mix of cationic surfactant, glacial acetic acid, and sodium chloride. Two ml of the lysed cell suspension from each well is added to 8 ml of diluent. The number of nuclei is determined using a Coulter counter (ZBI model), and a percent growth for each drug concentration is calculated. From this, and ID50 (molar concentration of compound that results in 50% inhibition of growth) is determined.

[1] = test system: lymphocytic leukemia P388; test: in vivo lymphocytic leukemia P388 test; set-up: species or system CD2 F1 mice; settings: Mus musculus, P388, ip, 120 h
Experimental: Another test protocol is the in vivo lymphocytic leukemia P388 test. The animals used are either male or female CD2 F1 mice, six or seven animals per test group. The tumor transplant is by intraperitoneal injection of dilute ascitic fluid containing cells of lymphocytic leukemia P388. The test compounds are administered intraperitoneally once daily for five consecutive days at various doses following tumor inoculation. The animals are weighed and survivors are recorded on a regular basis for 30 days. A compound is designated "toxic" if, at a given dose, all animals died prior to four days after the first injection of drug. A ratio of survival time for treated (T)/control (C) animals is calculated. A criterion for efficacy is a ratio T/C times 100 greater than or equal to 125. See Cancer Chemotherapy Reports, Part 3, 3, 1 (1972) for a comprehensive discussion of the protocol.

[2] = Mueller-Hinton broth, 37° C., 16-24 hours
[3] = HCT-8 cells, 60 to 65 hours, ED50, read-out: HCA ED50 Avg.
[4] = 1.56 mg/kg, intraperitoneally once daily for five days, read-out: P388 in vivo T/C × 100
[5] = 3.12 mg/kg, intraperitoneally once daily for five days, read-out: P388 in vivo T/C × 100
[6] = 6.25 mg/kg, intraperitoneally once daily for five days, read-out: P388 in vivo T/C × 100
[7] = intraperitoneally once daily for five days, read-out: P388 in vivo T/C × 100

SMILES | MIC (Branhamella catarrhalis; [2]) [µg/mL] | MIC (Bacillus cereus; [2]) [µg/mL] | MIC (Escherichia coli; [2]) [µg/mL] | MIC (Alcaligenes viscolactis; [2]) [µg/mL] | MIC (Streptococcus pneumoniae; [2]) [µg/mL] | IC50 (HCT-8 cells; [3]) [nM] | response vs control in vivo at 6.25 mg/kg [1, 6] [%] | response vs control in vivo at 12.5 mg/kg [1, 7] [%] | also measured
CCCCOc1ccc2c(c1)-c1nn(CCNCCO)c3ccc([N+](=O)[O-])c(c13)N2 [Example 41, 2-[[2-(9-Butoxy-5-nitropyrazolo[3,4,5-kl]acridin-2(6H)-yl)ethyl]amino]ethanol, methanesulfonate, hemihydrate] | 1.4 | 12.3 | 3.7 | < 0.46 | 12.3 | 340 | 159 | 174 | response vs control in vivo at 1.56 mg/kg [1, 4]: 141%; response vs control in vivo at 3.12 mg/kg [1, 5]: 147%
CCOc1ccc2c(c1)-c1nn(CCN(CC)CC)c3ccc([N+](=O)[O-])c(c13)N2.CS(=O)(=O)O [Example 18, N,N-Diethyl-9-ethoxy-5-nitropyrazolo[3,4,5-kl]acridine-2(6H)-ethanamine, methanesulfonate (1:1)] | 1.4 | 12.3 | 12.3 | < 0.46 | < 0.46 | 110 | 169 | 201 | response vs control in vivo at 3.13 mg/kg ([1]; 3.13 mg/kg, intraperitoneally once daily for five days, read-out: P388 in vivo T/C × 100): 135%
CC[N+]([O-])(CC)CCn1nc2c3c(c([N+](=O)[O-])ccc31)Nc1ccccc1-2 [Example 35, N,N-Diethyl-5-nitropyrazolo[3,4,5-kl]acridine-2(6H)-ethanamine, N-oxide, methanesulfonate salt (5:6), hydrate (4:3)] | 12.3 | > 1000 | 12.3 | 4.1 | 12.3 | – | – | 167 | –
CCN(CC)CCn1nc2c3c(c([N+](=O)[O-])ccc31)Nc1ccc(O[Si](C)(C)C(C)(C)C)cc1-2 [Example 26, 9-[[(1,1-Dimethylethyl)dimethylsilyl]oxy]-N,N-diethyl-5-nitropyrazolo[3,4,5-kl]acridine-2(6H)-ethanamine, methanesulfonate (salt) (1:1)] | – | – | – | – | – | – | – | – | MIC (Branhamella catarrhalis): > 1000 µg/mL; MIC (Bacillus cereus): > 1000 µg/mL; MIC (Escherichia coli): > 1000 µg/mL; MIC (Alcaligenes viscolactis): 37 µg/mL; MIC (Streptococcus pneumoniae): > 1000 µg/mL; IC50 (HCT-8 cells; HCT-8, read-out: HCA ED50 Avg.): 6.4 nM; response vs control in vivo at 1.56 mg/kg ([1]; read-out: P388 in vivo T/C × 100, 1.56 mg/kg, intraperitoneally once daily for five days): 154%; response vs control in vivo at 3.12 mg/kg ([1]; read-out: P388 in vivo T/C × 100, 3.12 mg/kg, intraperitoneally once daily for five days): 158%; response vs control in vivo at 6.25 mg/kg ([1]; read-out: P388 in vivo T/C × 100, 6.25 mg/kg, intraperitoneally once daily for five days): 211%
CCN(CC)CCn1nc2c([N+](=O)[O-])cc([N+](=O)[O-])c3c2c1-c1cc(OC)ccc1N3.CS(=O)(=O)O [Example 56, N,N-Diethyl-9-methoxy-3,5-dinitropyrazolo[3,4,5-kl]acridine-1(6H)-ethanamine, methanesulfonate] | – | – | – | – | – | – | – | – | MIC (Branhamella catarrhalis): 37 µg/mL; MIC (Bacillus cereus): 333 µg/mL; MIC (Escherichia coli): 1000 µg/mL; MIC (Alcaligenes viscolactis): < 0.46 µg/mL; MIC (Streptococcus pneumoniae): 12.3 µg/mL
CCCOc1ccc2c(c1)-c1nn(CCN(CC)CC)c3ccc([N+](=O)[O-])c(c13)N2.CS(=O)(=O)O [Example 19, N,N-Diethyl-5-nitro-9-propoxypyrazolo[3,4,5-kl]acridine-2(6H)-ethanamine, methanesulfonate salt (1:1)] | < 0.46 | 12.3 | 1000 | < 0.46 | < 0.46 | 310 | 167 | – | response vs control in vivo at 3.12 mg/kg [1, 5]: 137%
CCN(CC)CCn1nc2c3c(c([N+](=O)[O-])ccc31)Nc1ccc(OCc3ccccc3)cc1-2 [Example 11, monomethanesulfonate] | – | – | – | – | – | – | – | 127 | IC50 (HCT-8 cells; HCT-8 cells, 60 to 65 hours, molar concentration for 50% inhibition of growth, read-out: HCA in vitro ID50 avg.): 2300 nM; response vs control in vivo at 25 mg/kg ([1]; 25 mg/kg, intraperitoneally once daily for five days, read-out: P388 in vivo T/C × 100): 141%; response vs control in vivo at 50 mg/kg ([1]; 50 mg/kg, intraperitoneally once daily for five days, read-out: P388 in vivo T/C × 100): 194%
CCN(CC)CCn1nc2c3c(c([N+](=O)[O-])ccc31)Nc1c(OC)cccc1-2.CS(=O)(=O)O [Example 17, N,N-Diethyl-7-methoxy-5-nitropyrazolo[3,4,5-kl]acridine-2(6H)-ethanamine, methanesulfonate (1:1)] | < 0.46 | < 0.46 | < 0.46 | < 0.46 | < 0.46 | 510 | – | 106 | –
CCN(CC)CCn1nc2c3c(c([N+](=O)[O-])ccc31)Nc1ccc(C)cc1-2 [Example 34, N,N-Diethyl-9-methyl-5-nitropyrazolo[3,4,5-kl]acridine-2(6H)-ethanamine, methanesulfonate (salt) (1:1)] | < 0.46 | < 0.46 | 12.3 | < 0.46 | < 0.46 | 790 | – | – | –
CCN(CC)CCn1nc2c3c(c([N+](=O)[O-])ccc31)Nc1c(OC)cc(OC)cc1-2 [Example 23, N,N-Diethyl-7,9-dimethoxy-5-nitropyrazolo[3,4,5-kl]acridine-2(6H)-ethanamine, methanesulfonate, hydrate (1:1)] | 1.4 | < 0.46 | 37 | < 0.46 | < 0.46 | 490 | – | – | –
CCCC(=O)Oc1ccc2c(c1)-c1nn(CCN(CC)CC)c3ccc([N+](=O)[O-])c(c13)N2 [Example 29, [2-[2-(Diethylamino)ethyl]-2,6-dihydro-5-nitropyrazolo[3,4,5-kl]acridin-9-yl]butanoic ester, methanesulfonate (salt) (1:1)] | 1.4 | 4.1 | 333 | < 0.46 | < 0.46 | – | 252 | – | –
CCCCOc1ccc2c(c1)-c1nn(CCN(CC)CC)c3ccc([N+](=O)[O-])c(c13)N2 [Example 20, 9-Butoxy-N,N-diethyl-5-nitropyrazolo[3,4,5-kl]acridine-2(6H)-ethanamine, methanesulfonate] | – | – | – | – | – | 73 | 160 | – | response vs control in vivo at 1.56 mg/kg [1, 4]: 124%; response vs control in vivo at 3.12 mg/kg [1, 5]: 125%
